Measurements reported in ChEMBL document CHEMBL1949671, “Design and synthesis of estrogen receptor degradation inducer based on a protein knockdown strategy” (Bioorg Med Chem Lett, 2012).
Activity calls are given as the source filed them. No cut-off for these calls is given here.

Experiments:
[1] = target: T1, Baculoviral IAP repeat-containing protein 2/Estrogen receptor (Homo sapiens) (UniProt P03372+Q13490); test: Binding affinity to cIAP1/ERalpha in human MCF7 cells assessed as proteasomal degradation of ERalpha at 10 to 30 uM after 6 hrs by Western blot analysis; format: cell-based
[2] = target: T1, Baculoviral IAP repeat-containing protein 2/Estrogen receptor (Homo sapiens); test: Binding affinity to cIAP1/ERalpha in human MCF7 cells assessed as proteasomal degradation of ERalpha after 6 hrs by Western blot analysis in presence of proteasome inhibitor MG132; format: cell-based

Activity [1]	Activity [2]	Compound
Active	inactive	CCC(=C(c1ccc(O)cc1)c1ccc(OCCN(C)C(=O)CCNC(=O)[C@H](CC(C)C)NC(=O)[C@@H](O)[C@H](N)Cc2ccccc2)cc1)c1ccccc1
Active	inactive	CCC(=C(c1ccc(O)cc1)c1ccc(OCCN(C)C(=O)CCCCNC(=O)[C@H](CC(C)C)NC(=O)[C@@H](O)[C@H](N)Cc2ccccc2)cc1)c1ccccc1
Active	inactive	CCC(=C(c1ccc(O)cc1)c1ccc(OCCN(C)C(=O)CCCCCCNC(=O)[C@H](CC(C)C)NC(=O)[C@@H](O)[C@H](N)Cc2ccccc2)cc1)c1ccccc1
